pIC50: −log10 of the molar value. Numbered stars: 1 amine (or outer) side, 2 acyl side, 3 side chain; on linkers, the order of the positions; unused ones are H or OH. Bridge positions count the residues as written; N and C are the ends. Square brackets hold non-standard residues; d marks the D form. Peptide text beside a SMILES is read from it. Adda = CO[C@@H](Cc1ccccc1)[C@@H](C)/C=C(C)/C=C/[C@H](N[*:1])[C@H](C)C(=O)[*:2]; dAsp(3S-Me) = C[C@H](C(=O)[*:3])[C@@H](N[*:1])C(=O)[*:2]; d(γGlu) = O=C(O)[C@@H](CCC(=O)[*:2])N[*:1]; NMeDha = C=C(NC)C(=O)O

One test is described as follows: Percentage inhibition of murine protein phosphatase 2A at 1 mM.
With `CC(C)C[C@H]1NC(=O)[C@H](C)NC(=O)[C@@H](CC(=O)O)NC(=O)[C@H](CCC(=O)O)NC(=O)CCNC(=O)[C@@H](C)NC(=O)[C@H](CC(=O)O)NC1=O`, the inhibition turned out to be 21%.
Same read-out and setting: as for `CC(C)C[C@H]1NC(=O)[C@H](C)NC(=O)[C@@H](CC(=O)O)NC(=O)CCCNC(=O)CCNC(=O)[C@@H](C)NC(=O)C[C@@H](C(=O)O)NC1=O`, the figure is 42%; as for `CC(C)C[C@H](NC(=O)[C@@H](C)N)C(=O)N[C@H](CC(=O)O)C(=O)N[C@@H](C)C(=O)N[C@@H](CC(=O)O)C(=O)N[C@H](CCC(=O)O)C(=O)N[C@@H](C)C(=O)O`, 11%.
`CC(C)C[C@H]1NC(=O)[C@H](C)NC(=O)[C@@H](C)NC(=O)CC[C@@H](C(=O)O)NC(=O)CCNC(=O)[C@@H](C)NC(=O)C[C@@H](C(=O)O)NC1=O` displayed an inhibition of 3%.
Still for that read-out and setting: as for `CC(C)C[C@H](NC(=O)[C@@H](C)N)C(=O)N[C@@H](CC(=O)N[C@@H](C)C(=O)N[C@@H](C)C(=O)N[C@@H](CCC(=O)N[C@@H](C)C(=O)O)C(=O)O)C(=O)O`, the figure is 22%.
Same read-out and setting: as for `CC(C)C[C@H](NC(=O)[C@@H](C)NC(=O)[C@H](C)NC(=O)CC[C@@H](NC(=O)CCN)C(=O)O)C(=O)N[C@H](CC(=O)N[C@@H](C)C(=O)O)C(=O)O`, the figure is 15%.
On the same count and under the same terms, as for `CC(C)C[C@H](NC(=O)[C@@H](C)NC(=O)[C@H](C)NC(=O)CC[C@@H](NC(=O)[C@@H](N)CS)C(=O)O)C(=O)N[C@H](CC(=O)N[C@@H](C)C(=O)O)C(=O)O`, the figure is 19%; as for `CC(C)C[C@H](NC(=O)[C@@H](C)N)C(=O)N[C@@H](CC(=O)N[C@@H](C)C(=O)N[C@@H](CS)C(=O)N[C@H](CCC(=O)N[C@@H](CC(=O)O)C(N)=O)C(=O)O)C(=O)O`, 18%; as for `CC(C)C[C@H](NC(=O)[C@@H](C)N)C(=O)N[C@@H](CC(=O)N[C@@H](C)C(=O)NCCC(=O)N[C@H](CCC(=O)N[C@@H](CC(=O)O)C(N)=O)C(=O)O)C(=O)O`, 11%.
The molecule `CC(C)C[C@H](NC(=O)[C@@H](C)N)C(=O)NCCC(=O)N[C@@H](C)C(=O)N[C@@H](CC(=O)O)C(=O)N[C@@H](CCC(=O)N[C@@H](C)C(=O)O)C(=O)O` registered an inhibition of 12%.
With `C[C@H](NC(=O)C[C@H](NC(=O)[C@H](C)NC(=O)CC[C@@H](NC(=O)CCN)C(=O)O)C(=O)O)C(=O)O`, the inhibition is 19%.
Same read-out and setting: as for `CC(C)C[C@H](NC(=O)[C@@H](C)N)C(=O)N[C@H](CC(=O)O)C(=O)N[C@@H](C)C(=O)NCCC(=O)N[C@H](CCC(=O)O)C(=O)N[C@@H](CC(=O)O)C(N)=O`, the figure is 1%; as for `CC(C)C[C@H](NC(=O)[C@@H](C)N)C(=O)NCCC(=O)N[C@@H](C)C(=O)N[C@H](CC(=O)O)C(=O)N[C@H](CCC(=O)O)C(=O)N[C@@H](C)C(=O)O`, 14%.
Molecule `C[C@H](NC(=O)[C@@H](CC(=O)O)NC(=O)[C@H](C)NC(=O)[C@@H](CCC(=O)O)NC(=O)CCN)C(=O)O` gave an inhibition of 30%.
In turn, `CC(C)C[C@H](NC(=O)[C@@H](C)NC(=O)[C@H](C)NC(=O)[C@@H](CCC(=O)O)NC(=O)CCN)C(=O)N[C@H](CC(=O)O)C(=O)N[C@@H](C)C(=O)O` came in with an inhibition of 16%.
Same read-out and setting: as for `CC(C)C[C@H](NC(=O)[C@@H](C)N)C(=O)N[C@H](CC(=O)O)C(=O)N[C@@H](C)C(=O)N[C@@H](CS)C(=O)N[C@H](CCC(=O)O)C(=O)N[C@@H](CC(=O)O)C(N)=O`, the figure is 17%; as for `CC(C)C[C@H](NC(=O)[C@@H](C)N)C(=O)N[C@@H](CC(=O)N[C@@H](C)C(=O)NCCC(=O)N[C@H](CCC(=O)N[C@@H](C)C(=O)O)C(=O)O)C(=O)O`, 12%; as for `CC(C)C[C@H](NC(=O)[C@@H](C)N)C(=O)N[C@@H](CC(=O)N[C@@H](C)C(=O)N[C@@H](CC(=O)O)C(=O)N[C@H](CCC(=O)N[C@@H](C)C(=O)O)C(=O)O)C(=O)O`, 21%.
On the same count and under the same terms, as for `CC(C)C[C@@H]1NC(=O)[C@@H](C)NC(=O)[C@H](CC(=O)O)NC(=O)[C@@H](CCC(=O)O)NC(=O)[C@H](CS)NC(=O)[C@H](C)NC(=O)[C@@H](CC(=O)O)NC1=O`, the figure is 86%; as for `CC(C)C[C@H](NC(=O)[C@@H](C)NC(=O)[C@H](C)NC(=O)[C@@H](CCC(=O)O)NC(=O)[C@@H](N)CS)C(=O)N[C@H](CC(=O)O)C(=O)N[C@@H](C)C(=O)O`, 22%; as for `CC(C)C[C@H]1NC(=O)[C@H](C)NC(=O)[C@@H](CC(=O)O)NC(=O)CCCNC(=O)[C@@H](CS)NC(=O)[C@@H](C)NC(=O)C[C@@H](C(=O)O)NC1=O`, 45%.

The nature of another test: Compound was tested for inhibition of protein phosphatase 2A (PP2A).
Consider `C[C@H](NC(=O)[C@@H](CC(=O)O)NC(=O)[C@H](C)NC(=O)[C@@H](CCC(=O)O)NC(=O)CCN)C(=O)O`, for which the pIC50 is 2.00.
Same read-out and setting: as for `C=C1C(=O)N[C@H](C)C(=O)N[C@@H](CC(C)C)C(=O)N[C@@H](C(=O)O)[C@H](C)C(=O)N[C@@H](CCCNC(=N)N)C(=O)N[C@@H](/C=C/C(C)=C/[C@H](C)[C@H](Cc2ccccc2)OC)[C@H](C)C(=O)N[C@@H](C(=O)O)CCC(=O)N1C` [MICROCYSTIN-LR] (R[Adda][d(γGlu)][NMeDha][dA]L[dAsp(3S-Me)]-OH; lactam N-7), the figure is 3.70; as for `CC(C)C[C@@H]1NC(=O)[C@@H](C)NC(=O)[C@H](CC(=O)O)NC(=O)[C@@H](CCC(=O)O)NC(=O)[C@H](CS)NC(=O)[C@H](C)NC(=O)[C@@H](CC(=O)O)NC1=O`, 3.30; as for `CC(C)C[C@H]1NC(=O)[C@H](C)NC(=O)[C@@H](CC(=O)O)NC(=O)CCCNC(=O)[C@@H](CS)NC(=O)[C@@H](C)NC(=O)C[C@@H](C(=O)O)NC1=O`, 2.00.

In general, inhibition refers to the drop in the measured response relative to a control, in per cent. Low readings indicate a weak effect, high ones a strong effect. The pIC50 is the negative decadic logarithm of the IC50, by convention in mol/L. A low value points to a large IC50.

These data come from ChEMBL document CHEMBL1129159, “Inhibition of protein phosphatase 2A by cyclic peptides modelled on the microcystin ring” (Bioorg Med Chem Lett, 1996).
